Reference: patent US8853193B2, “Thienopyrimidines containing a substituted alkyl group for pharmaceutical compositions” (Boehringer Ingelheim International GmbH, priority 2010, dated 2014)
Where a name gives a salt, the structure may show the parent alone.

Target: human Mnk2a (Homo sapiens (Human), UniProt Q9HBH9)
Experiment: Mnk2a in vitro kinase assay (indirect competitive fluorescence polarization)
Format: biochemical
Conditions: pre-activated GST-Mnk2a 2.5 nM, 20 μM ATP, 30 μM substrate peptide; read-out: MNK2 IC50
Method: Inhibitory potency of compounds against Mnk1, Mnk2a and other kinases was assessed with assays based on a format known to those skilled in the art as the indirect (competitive) fluorescence polarization. The assay detection system comprises a small fluorophore-labeled phospho-peptide (termed ligand) bound to a phospho-specific antibody. The product generated by the kinase reaction competes with the ligand for antibody binding. Based on the larger molecular volume of the bound ligand, which results in a lower rotation rate in solution, its emitted light has a higher degree of polarization than the one from the free ligand.
In brief, the open reading frames of human Mnk1 and Mnk2a were amplified from cDNA using the forward/reverse primer pairs
(utilized restriction sites underlined), respectively, and cloned into the BamHI and SalI sites of the vector pGEX-4T1 (Amersham, Sweden, cat. no. 27-4580-01). These constructs allow prokaryotic expression of Mnk1 or Mnk2a as fusion protein with a N-terminal glutathione S-transferase (GST) tag, referred to as GST-Mnk1 or GST-Mnk2a. The following expression and purification procedure was identical for GST-Mnk1 and GST-Mnk2a, referring in general to GST-Mnk, when not distinguishing between the two isoforms. Expression of GST-Mnk was in E. coli BL21 (Merck Biosciences, Germany, cat. no. 69449). Cells were grown in LB-Bouillon (Merck, Germany, cat. no. 1.10285) supplemented with 100 μg/ml ampicillin (Sigma, Germany, cat. no. A9518) at 37° C. […] Cells harvested by centrifugation were resuspended in 10 ml lysis buffer (50 mM tris(hydroxymethyl)aminomethane hydrochloride (Tris/HCl, Sigma, Germany, cat. no. T5941) pH 7.5, 300 mM sodium chloride (NaCl, Sigma, Germany, cat. no. S7653), 5% (w/v) glycerol (Sigma, Germany, cat. no. G5516), 3 mM DTT dithiotreitol (DTT, Sigma, Germany, cat. no. D9779)) per gram wet weight cell pellet. Lysates were prepared by disruption of cells with a sonifier and subsequent clearing by centrifugation at 38000 g for 45 min at 4° C.
The lysate was applied to a GSTPrep FF 16/10 column (Amersham, Sweden, cat. no. 17-5234-01) equilibrated with lysis buffer. Removal of unbound material was with 3 column volumes (CV) lysis buffer. Elution was with 2 CV of elution buffer (50 mM Tris/HCl pH 7.5, 300 mM NaCl, 5% (w/v) glycerol, 20 mM glutathione (Sigma, Germany, cat. no. G4251)). Peak fractions were pooled and the protein transferred into storage buffer (50 mM Tris/HCl pH 7.5, 200 mM NaCl, 0.1 mM ethylene glycol[…] bis(2-aminoethylether)-N,N,N′,N′-tetraacetic acid (EGTA, Aldrich, Germany, cat. no. 23, 453-2), 1 mM DTT, 10% (w/v) glycerol, 0.5 M sucrose (Sigma, Germany, cat. no. S0389) by gel filtration on a PD10 desalting column (Amersham, Sweden, cat. no. 17-0851-01). Aliquots were shock frozen in liquid nitrogen and stored at −80° C.
Activation of Mnk1 and Mnk2a was at a concentration of 2.5 μM of either purified GST-Mnk1 or GST-Mnk2a by incubation with 150 nM pre-activated NHis-ERK2 (see ERK2 assay for preparation) and 50 μM adenosine triphosphate (ATP, Sigma, cat. no. A2699) in a buffer comprising 20 mM N-(2-hydroxyethyl)piperazine-N′-(2-ethanesulfonic acid) (HEPES, Fluka, Germany, cat. no 54459)/potassium hydroxide (KOH, Roth, Germany, cat. no 6751.1) pH 7.4, 10 mM magnesium chloride (MgCl2, Sigma, Germany, cat. no. M2670), 0.25 mM DTT, 0.05% (w/v) polyoxyethylene 20 stearylether (Brij 78, Sigma, Germany, cat. no. P4019) (HMDB buffer) for 45 min at 30° C. After the incubation, the preparation was aliquoted into single-use samples, shock frozen in liquid nitrogen, stored at −80° C. and utilized for Mnk1 or Mnk2a kinase assays as detailed below.
The serine residue phosphorylated by Mnk kinases is underlined.

Sequence of human Mnk2a (Q9HBH9 whole entry): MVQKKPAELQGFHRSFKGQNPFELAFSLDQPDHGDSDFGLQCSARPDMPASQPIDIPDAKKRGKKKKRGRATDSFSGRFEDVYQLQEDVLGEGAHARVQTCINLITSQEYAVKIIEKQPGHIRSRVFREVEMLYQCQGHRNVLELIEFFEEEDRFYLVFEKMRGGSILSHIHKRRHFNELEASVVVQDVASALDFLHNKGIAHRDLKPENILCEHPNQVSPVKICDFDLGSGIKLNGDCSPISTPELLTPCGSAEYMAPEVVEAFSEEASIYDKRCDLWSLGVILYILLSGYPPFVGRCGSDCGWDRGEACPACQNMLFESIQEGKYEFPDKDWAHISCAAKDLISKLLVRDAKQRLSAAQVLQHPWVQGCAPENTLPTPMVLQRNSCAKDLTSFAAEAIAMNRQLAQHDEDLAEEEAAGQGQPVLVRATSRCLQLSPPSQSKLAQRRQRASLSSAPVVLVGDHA

Row | Compound | IC50 [nM]
1 | Cc1c(C(=O)O)sc2ncnc(Nc3cccnc3OCC(C)F)c12 (centres unmarked) [Compound 27-2, 4-(2-(2-Fluoropropoxy)pyridin-3-ylamino)-5-methyl-thieno[2,3-d]pyrimidine-6-carboxylic acid] | 33
2 | COC(=O)c1sc2ncnc(Nc3ccc(F)cc3OC(C)CNS(=O)(=O)C(C)C)c2c1C (centres unmarked) [Compound 3-2, Methyl 4-(4-fluoro-2-(1-(1-methylethylsulfon-amino)propan-2yloxy)-phenylamino)-5-methyl-thieno[2,3-d]pyrimidine-6-carboxylate] | 204
3 | CCNC(=O)C(C)Oc1cc(F)ccc1Nc1ncnc2sc(C(=O)NCCO)c(C)c12 (centres unmarked) [Compound 41] | 31
4 | Cc1c(C(=O)NCCCN(C)C)sc2ncnc(Nc3cccnc3OCC(F)F)c12 [Compound 30-5, 4-(2-(2,2-difluoroethoxy)-pyridin-3-ylamino)-N-(3-(dimethyl-amino)propyl)-5-methyl-thieno[2,3-d]pyrimidine-6-carbox-amide hydro-chloride] | 57
5 | Cc1c(C(=O)NCC#CCN(C)C)sc2ncnc(Nc3cccnc3OC(C)C(F)(F)F)c12 (centres unmarked) [Compound 21-7, 5-Methyl-4-[2-(2,2,2-trifluoro-1-methyl-ethoxy)-pyridin-3-ylamino]-thieno[2,3-d]pyrimidine-6-carboxylic acid (4-dimethylamino-but-2-ynyl)-amide] | 24
6 | CCNC(=O)C(C)Oc1cc(F)ccc1Nc1ncnc2sc(C(=O)O)c(C)c12 (centres unmarked) [Compound 39, 4-[2-(1-Ethylcarbamoyl-ethoxy)-4-fluoro-phenylamino]-5-methyl-thieno[2,3-d]pyrimidine-6-carboxylic acid] | 19
7 | Cc1c(C(=O)N[C@@H]2C[C@H]2NC(=O)OC(C)(C)C)sc2ncnc(Nc3ccc(F)cc3OC(CF)CF)c12 [Compound 23-5, Tert-butyl (1R,2R)-2-(4-2(1,3-difluoro-propan-[2,3-d]pyrimidine-6-carboxamido)cyclopropyl carbamate] | 13
8 | Cc1c(C(=O)N[C@H]2C[C@@H]2N)sc2ncnc(Nc3cccnc3OC(C)C)c12 [Compound 36-6, N-((1S,2S)-2-Aminocyclopropyl)-4-(2-isopropoxypyridin-3-ylamino)-5-methylthieno[2,3-d]pyrimidine-6-carboxamide] | 55
9 | Cc1c(C(=O)NCCO)sc2ncnc(Nc3ccc(C#N)cc3OC(CF)CF)c12 [Compound 51, 4-(4-Cyano-2-(2-fluoro-1-fluoromethyl-ethoxy)-phenylamino]-5-methyl-thieno[2,3-d]pyrimidine-6-carboxylic acid (2-hydroxy-ethyl)-amide] | 10
10 | Cc1c(C(=O)NCCCN(C)C)sc2ncnc(Nc3ccc(F)cc3OC(C)CNC(=O)OC(C)(C)C)c12 (centres unmarked) [Compound 1-4, tert-Butyl 2-(2-(6-(3-(dimethymino)propyl-carbamoyl)-5-methyl-thieno[2,3-d]pyrimidin-4-ylamino)-5-fluoro-phenoxy)propyl-carbamate] | 294
11 | CCNC(=O)C(C)Oc1cc(F)ccc1Nc1ncnc2sc(C(=O)OC)c(C)c12 (centres unmarked) [Compound 61, 4-[2-(1-Ethylcarbamoyl-ethoxy)-4-fluoro-phenylamino}-5-methylthieno[2,3d]pyrimidine-6-carboxylic acid methyl ester] | 77
12 | Cc1c(C(=O)NCc2cnco2)sc2ncnc(Nc3cccnc3OC(C)C)c12 [Compound 36-8, 4-(2-Isopropoxypyridin-3ylamino)-5-methyl-N-(oxazol-5-ylmethyl)thieno[2,3-d]pyrimidine-6-carboxamide] | 19
13 | Cc1c(C(=O)NC2CCN(C)CC2)sc2ncnc(Nc3cccnc3OC(C)C)c12 [Compound 36-10, 4-(2-Isopropoxypyridin-3ylamino)-5-methyl-N-(1-methylpiperidin-4-yl)thieno[2,3-d]pyrimidine-6-carboxamide] | 32
14 | Cc1c(C(=O)NCCO)sc2ncnc(Nc3cccnc3OC(C)CCN)c12 (centres unmarked) [Compound 42, 4-[2-(3-Amino-1-methyl-propoxy)-3pyridin-3-ylamino]-5-methyl-thieno[2,3-d]pyrimidine-6-carboxylic acid (2-hydroxy-ethyl)-amide] | 70
15 | COC(=O)c1sc2ncnc(Nc3ccc(F)cc3OC(C)C(=O)O)c2c1C (centres unmarked) [Compound 55, 4-[2-(1-Carboxy-ethoxy)-4-fluoro-phenylamino]-5-methyl-thieno[2,3-d]pyrimidine-6-carboxylic acid methyl ester] | 5400
16 | COC(=O)c1sc2ncnc(Nc3ccc(F)cc3OC(C)C(=O)NCCN)c2c1C (centres unmarked) [Compound 58, 4-{2-[1-(2-Amino-ethylcarbamoyl)-ethoxyl]-4-fluoro-phenylamino}-5-methyl-thieno[2,3-d]pyrimidine-6-carboxylic acid methyl ester] | 119

More lines, now with the values ahead:

Row | IC50 [nM] | Compound
17 | 50 | Cc1c(C(=O)NCCO)sc2ncnc(Nc3ccc(F)cc3OC(C)CN)c12 (centres unmarked) [Compound 2-3, 4-(2-(1-Amino-propan-2-yloxy)-4-fluorophenylamino)-N-(2-hydroxy-ethyl)-5-methyl-thieno[2,3-d]-pyrimidine-6-carboxamide]
18 | 296 | CCOCC(COCC)Oc1cc(F)ccc1Nc1ncnc2sc(C(N)=O)c(C)c12 [Compound 22-3, 4-(2-(1,3-Diethoxypropan-2-yloxy)-4-fluorophenylamino)-5-methyl-thieno[2,3-d]pyrimidine-6-carboxamide]
19 | 12 | Cc1c(C(=O)NCCC2CCN(C)C2)sc2ncnc(Nc3ccc(F)cc3OC(C)CF)c12 (centres unmarked) [Compound 32-43]
20 | 25 | Cc1c(C(=O)NC2CCN(C)CC2)sc2ncnc(Nc3ccc(F)cc3OC(C)CC(F)(F)F)c12 (centres unmarked) [Compound 32-41]
21 | 64 | Cc1c(C(N)=O)sc2ncnc(Nc3ccc(F)cc3OC(C)CNCCC(F)(F)F)c12 (centres unmarked) [Compound 8-2]
22 | 52 | COC(=O)c1sc2ncnc(Nc3ccc(F)cc3OC(C)CCN)c2c1C (centres unmarked) [Compound 12, Methyl 4-(2-(4-aminobutan-2yloxy)-4-fluorophenylamino)-5-methyl-thieno[2,3-d]pyrimidine-6-carboxylate hydrochloride]
23 | 3140 | COC(=O)c1sc2ncnc(Nc3ccc(F)cc3OC(C)CN(C)C)c2c1C (centres unmarked) [Compound 4, Methyl 4-(2-(1-dimethylamino)propan-2yloxy)-4-fluorophenylamino)-5-methyl-thieno[2,3-d]pyrimidine-6-carboxylate trifluoroacetate]
24 | 7 | Cc1c(C(=O)NCCO)sc2ncnc(Nc3ccc(F)cc3OC(C)CF)c12 (centres unmarked) [Compound 32-27]
25 | 1020 | COC(=O)c1sc2ncnc(Nc3ccc(F)cc3OC(C)CCN(C)C)c2c1C (centres unmarked) [Compound 14]
26 | 25 | COCC(C)Oc1cc(F)ccc1Nc1ncnc2sc(C(=O)NCCO)c(C)c12 (centres unmarked) [Compound 32-36]
27 | 164 | Cc1c(C(N)=O)sc2ncnc(Nc3ccc(F)cc3O[C@@H](C)CNC(=O)OC(C)(C)C)c12 (racemic) [Compound 6-1, (R) and (S)-tert-butyl 2-(2-(6-carbamoyl-5-methyl-thieno[2,3-d]pyrimidin-4-ylamino)-5-fluorophenoxy)propylcarbamate]
28 | 8 | COCC(C)Oc1cc(F)ccc1Nc1ncnc2sc(C(N)=O)c(C)c12 (centres unmarked) [Compound 32-37]
29 | 90 | Cc1c(C(N)=O)sc2ncnc(Nc3ccc(F)cc3O[C@@H](C)CN)c12 (racemic) [Compound 6-2, (R) and (S)-4-(2-(1-aminopropan-2-yloxy)-4-fluorophenylamino)-5-methylthieno[2,3-d]pyrimidine-6-carboxamide trifluoroacetate]
